# Reference: PMC6387077, “Interaction of Halictine-Related Antimicrobial Peptides with Membrane Models” (International Journal of Molecular Sciences, 2019)
# Columns and labels:
# [1] = Concentration dependence of ECD and VCD spectra (aggregation); format: physicochemical; conditions: aqueous solution, 100 mg/mL peptide, room temperature, ECD and VCD read-out
# Excerpt: In order to clarify the discrepancy between the results of the peptide conformational analyses obtained by ECD and IR, we have complemented our study by a measurement of concentration dependencies of ECD spectra of the HAL-1 peptides (Figure 9). […] In order to determine the peptide conformational change induced by its high concentration more specifically, we have performed measurements of VCD spectra of the peptides (Figure 10) using the highest peptide concentration studied by ECD (i.e., 100 mg/mL). VCD measurements supported the results of ECD analysis, confirming that at high peptide concentration, HAL-1 and its analogs HAL-1/6, HAL-1/10, and HAL-1/20 spontaneously form the α-helical structure, indicated by a negative/positive VCD couplet in the amide I region. On the contrary, the HAL-1/2 analog (Figure 10b) seems to undergo a distinct conformational change, forming highly organized β-sheet aggregates (β-sheet fibrils) characterized by an intense five-peak VCD signal with the (−/−/+/−/−) sign pattern in the amide I and II region. […]
# Concentration dependence was measured for all the peptides at the given concentrations: 0.1, 10, and 100 mg/mL. […] The α-helical fraction was calculated using a two-state model. […]
# VCD spectra were measured on a dual source and dual photo-elastic modulator [67] […]
# [2] = test system: Bacillus subtilis; conditions: ref [19]; cited from earlier work
# Excerpt: (§1) Table 1 Amino acid sequences, physico-chemical and biological properties (µH is the hydrophobic moment, and H represents the mean hydrophobicity, calculated according to [27]), of the studied antibacterial HAL-1 peptides. Data were taken from ref. [19]. Point mutations with respect to the natural HAL-1 peptide are underlined. The Schiffer−Edmundson wheel projection of the HAL-1 and its analogs | column: Antimicrobial Activity MIC (µM) / B.^1
# [3] = test system: Staphylococcus aureus; conditions: ref [19]; cited from earlier work
# Excerpt: as §1, with “S.^2” for “B.^1”
# [4] = test system: Escherichia coli; conditions: ref [19]; cited from earlier work
# Excerpt: as §1, with “E.^3” for “B.^1”
# [5] = test system: Pseudomonas aeruginosa; conditions: ref [19]; cited from earlier work
# Excerpt: as §1, with “P.^4” for “B.^1”
# [6] = test system: red blood cells; conditions: hemolytic activity against red blood cells; ref [19]; cited from earlier work
# Excerpt: as §1, with “Hemolytic LC50” for “Antimicrobial Activity MIC”, “(µM)” for “(µM) / B.^1”
Sequence,Aggregation at high peptide concentration [1],Antimicrobial Activity MIC B. [2],Antimicrobial Activity MIC S. [3],Antimicrobial Activity MIC E. [4],Antimicrobial Activity MIC P. [5],Hemolytic LC50 [6]
"GMWSKILGPLIR [HAL-1/2, HAL-1 analog, His9 substituted by Pro]",form β-aggregates,3.6 µM,>100 µM,30.0 µM,>100 µM,>200 µM
"GMWSKILGHLIK [HAL-1/6, HAL-1 analog, Arg12 replaced by Lys]",–,1.3 µM,15.8 µM,7.2 µM,65.0 µM,132 µM
"GKWSKILGKLIR [HAL-1/20, HAL-1 analog, Met2 and His9 substituted by Lys]",–,1.7 µM,21.7 µM,2.3 µM,–,>200 µM
"GMWKKILGKLIR [HAL-1/10, HAL-1 analog, Ser4 and His9 substituted by Lys]",–,0.8 µM,15.0 µM,2.3 µM,13.1 µM,>200 µM
GMWSKILGHLIR [HAL-1],–,0.8 µM,7.7 µM,3.8 µM,45.0 µM,82 µM
